{"source": "patent US7192591B2", "about": "“Pharmaceutical composition comprising an extract of Elfvingia applanata for the prevention and the treatment of diabetes and diabetic complications” (priority 2002, dated 2007)", "key": {"STZ-diabetic rats [1]": {"tested_on": "STZ-diabetic rats", "assay": "Plasma glucose content in STZ-diabetic rats after 2 weeks of oral dosing", "format": "in vivo, Sprague-Dawley (SD) rats", "details": "200 mg/kg/day intragastric", "procedure": "All experiments were performed on Sprague-Dawley (SD) rats aged 10 weeks, weighed 200-250 g and purchased from the Seoul national university. The animals were acclimatized for 1-2 weeks before being used for the experiments. Standard pelleted diet and water were given ad libitum. Animals were maintained under constant 12 hours light and dark cycle and an environmental temperature ranging from 21 to 23° C. Diabetes mellitus was induced in male SD rats, weighing 220-250 g, by a single intraperitoneal injection of strptozotocin (Sigma chemical CO., St. Louis, Mo., USA) dissolved in phosphate buffered saline acidified to pH 4.5 with 0.05 M citric acid (66 mg/kg body wt). Control rats were injected with the vehicle only. The animals were fed standard Lab. Chows and water ad. Lib. throughout the experiments. Two weeks later, the diabetes-induced rats were used in following experiments. […] extracts were suspended in saline containing 0.5% carboxymethyl cellulose. The animals were then sacrificed under ether anesthesia and their blood samples were collected. Plasma glucose levels were determined by using a commercial kit."}, "[2]": {"target": "T1, rat lenses aldose reductase (Rattus norvegicus, UniProt P07943)", "T1 construct": "The supernatant fraction of the rat lens homogenate was prepared according to the procedure described in the literature; from tissue; host or cells: lenses of Sprague-Dawley rats", "assay": "Rat lens aldose reductase inhibition (NADPH decrease at 340 nm, DL-glyceraldehyde substrate)", "format": "biochemical, Sprague-Dawley rats", "procedure": "Crude aldose reductase was prepared as follows: rat lenses were removed from Sprague-Dawley rats weighing 250˜280 g and frozen until use. […] Partially purified enzyme having its a specific activity of 6.5 U/mg was routinely used to test enzyme inhibition. The partially purified material was separated into 1.0 ml of aliquots and stored at −40° C.\nEach 1.0 ml of cuvette containing equal units of enzyme, 0.1M sodium phosphate buffer (pH 6.2), 0.3 mM NADPH with or without 10 mM substrate and inhibitor was prepared."}, "STZ-diabetic rats [3]": {"tested_on": "STZ-diabetic rats", "assay": "Sorbitol accumulation in red blood cell, lenses and sciatic nerves of STZ-diabetic rats", "format": "in vivo, SD rats", "details": "2 weeks", "procedure": "Diabetes mellitus was induced in male SD rats, weighing 220-250 g, by a single intraperitoneal injection of strptozotocin (Sigma chemical CO., St. Louis, Mo., USA) dissolved in phosphate buffered saline acidified to pH 4.5 with 0.05 M citric acid (66 mg/kg body wt). Control rats were injected with the vehicle only. The animals were fed standard Lab. Chows and water ad. Lib. throughout the experiments. Two weeks later, the diabetes-induced rats were used in following experiments. […] The extract was suspended in saline containing 0.5% carboxymethyl cellulose. The animals were then sacrificed under ether anesthesia. The contents of sorbitol in the red blood cell, sciatic nerves, and lenses were determined enzymatically. Sorbitol was measured by a modification of the enzymatic assay procedure described in the literature (Clements, R. S. et al.; Science, 166(908), pp1007-8, 1969). 0.5 ml of protein-free filtrate of tissues was added to a reaction mixture consisting of 1.0 ml of 0.05 M glycine buffer adjusted to pH 9.4 containing 0.2 mM nicotinamide adenine dinucleotide (NAD) and 0.64 U of sorbitol dehydrogenase. Blanks untreated with the filtrate, NAD, or sorbitol dehydrogenase, were routinely run simultaneously. The relative fluorescence due to NADH was measured with an excitation wavelength of 366 nm and an emission wavelength of 452 nm. Epalrestat used in the present invention is a conventional therapeutic drug for diabetic complications."}, "normal rats": {"tested_on": "normal rats", "assay": "Oral glucose tolerance test in normal rats", "format": "in vivo, SD rats", "details": "extracts 300 mg/kg", "procedure": "Prior to an oral glucose tolerance test, rats were fasted for 16 hours. And then saline for control group, 250 mg/kg of metformin, one of the biguanides drug for comparison group and each 300 mg/kg of Elfvingia applanata extracts, respectively, was orally administered to each group consisting of 10 rats. Thirty minutes later, 3 g/kg of glucose was orally administered to each rat with a feeding syringe. Blood samples were collected from carotid artery at (just before the oral administration of glucose), 60, 120, and 180 mins after glucose load for glucose assay."}}}
{"smiles": "CC(/C=C1\\SC(=S)N(CC(=O)O)C1=O)=C\\c1ccccc1", "note": "[Epalrestat]", "values": [{"measurement": "Plasma glucose", "setting": "STZ-diabetic rats [1]", "value": "3.9 ± 0.2", "unit": "g/L"}, {"measurement": "Inhibition (%) of plasma glucose", "setting": "STZ-diabetic rats [1]; vs control", "value": 31.6, "unit": "%"}, {"measurement": "inhibition at 0.001 µg/mL", "setting": "[2]; concentration 0.001 μg/ml", "value": 35, "unit": "%"}, {"measurement": "inhibition at 0.01 µg/mL", "setting": "[2]; concentration 0.01 μg/ml", "value": 60.2, "unit": "%"}, {"measurement": "inhibition at 0.1 µg/mL", "setting": "[2]; concentration 0.1 μg/ml", "value": 100, "unit": "%"}, {"measurement": "Sorbitol in the lenses", "setting": "STZ-diabetic rats [3]; lenses, 200 mg/kg/day intragastric", "value": "0.38 ± 0.05", "unit": "nmol/mg dry wt."}, {"measurement": "Inhibition (%) of sorbitol accumulation in the lenses", "setting": "STZ-diabetic rats [3]; lenses, 200 mg/kg/day", "value": 52.5, "unit": "%"}, {"measurement": "Sorbitol in the red blood cell", "setting": "STZ-diabetic rats [3]; red blood cell, 200 mg/kg/day intragastric", "value": "108.7 ± 11.6", "unit": "nmol/g Hg"}, {"measurement": "Inhibition (%) of sorbitol accumulation in the red blood cell", "setting": "STZ-diabetic rats [3]; red blood cell, 200 mg/kg/day", "value": 75.0, "unit": "%"}, {"measurement": "Sorbitol in the sciatic nerves", "setting": "STZ-diabetic rats [3]; sciatic nerves, 200 mg/kg/day intragastric", "value": "4.3 ± 0.5", "unit": "nmol/mg dry wt."}, {"measurement": "Inhibition (%) of sorbitol accumulation in the sciatic nerves", "setting": "STZ-diabetic rats [3]; sciatic nerves, 200 mg/kg/day", "value": 58.2, "unit": "%"}]}
{"smiles": "CN(C)C(=N)N=C(N)N", "note": "[Metformin, metformin]", "values": [{"measurement": "Glucose, 1 hr", "setting": "normal rats; 1 hr after 3 g/kg oral glucose load, metformin 250 mg/kg oral", "value": "140.1 ± 7.0", "unit": "mg/dL"}, {"measurement": "Glucose, 2hr", "setting": "normal rats; 2 hr after 3 g/kg oral glucose load, metformin 250 mg/kg oral", "value": "122.8 ± 1.4", "unit": "mg/dL"}, {"measurement": "Glucose, 3hr", "setting": "normal rats; 3 hr after 3 g/kg oral glucose load, metformin 250 mg/kg oral", "value": "139.7 ± 4.5", "unit": "mg/dL"}, {"measurement": "Glucose, 0 hr", "setting": "normal rats; just before 3 g/kg oral glucose load, metformin 250 mg/kg oral 30 min earlier", "value": "54.5 ± 2.2", "unit": "mg/dL"}]}
{"smiles": "O=C(O)CC1(CC(=O)O)CCCC1", "note": "[TMG, TetraMethylene Glutaric acid]", "values": [{"measurement": "Inhibition (%) of aldose reductase", "setting": "[2]; concentration 0.1 μg/ml", "value": 40.6, "unit": "%"}, {"measurement": "Inhibition (%) of aldose reductase", "setting": "[2]; concentration 1 μg/ml", "value": 51.3, "unit": "%"}, {"measurement": "Inhibition (%) of aldose reductase", "setting": "[2]; concentration 10 μg/ml", "value": 76.4, "unit": "%"}, {"measurement": "IC50", "setting": "[2]; rat lens enzyme, pH 6.2, unit (μM) printed beside the value", "value": 0.46, "unit": "µM"}]}
